Results: US8962843B2, “1,3,4-oxadiazole and 1,3,4-thiadiazole beta-lactamase inhibitors” (priority 2012, dated 2015)
Counter-ions that a name gives are not always drawn.

Key:
[1] = system: bacterial strains that express the class D cephalosporinase OXA-15; experiment: Standard BLI potentiation MIC / synergy MIC assays, strains expressing OXA-15; type: cell-based, E. coli; conditions: in combination with a β-lactam; comparator Avibactam (CCC)
Method in brief: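 Broth microdilution in cation-adjusted Mueller Hinton broth per CLSI M07-A9, ~10^5 CFU/mL, 18-20 h at 37 °C with aeration; engineered E. coli carrying β-lactamase plasmids kept on 25 μg/mL tetracycline. β-lactam MIC measured in 2-fold dilutions (128-0.13 μg/mL) with BLI fixed at 4 μg/mL; sMIC titrates BLI against a fixed β-lactam concentration. MIC = lowest concentration without visible turbidity.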

[2] = system: bacterial strains that express KPC β-lactamases; experiment: Standard BLI potentiation MIC / synergy MIC assays, strains expressing KPC β-lactamases; type: cell-based; conditions: in combination with a β-lactam; comparator Avibactam
Method: The experimental protocol was performed according to Clinical and Laboratory Standards Institute (CLSI) guidelines with modifications as described below (CLSI guidelines can be derived from the CLSI document M07-A9 published in January 2012: “Methods for Dilution Antimicrobial Susceptibility Tests for Bacteria That Grow Aerobically; Approved Standard-Ninth Edition”).
To prepare for MIC testing, frozen glycerol stocks of clinical isolates (Klebsiella pneumoniae, Eschericia coli, Enterobacter spp, Citrobacter spp, or Pseudomonas aeruginosa) were used to streak for isolated colonies on rich, non-selective, tryptic soy agar containing 5% sheep's blood (TSAB). Frozen glycerol stocks of laboratory engineered, isogenic E. coli strains, which contain cloned β-lactamase expressing plasmids were used to streak for isolated colonies on rich, selective LB agar supplemented with 25 μg/mL tetracycline to maintain the plasmid. All strains were incubated at 37° C. for 18-24 hrs.
On the day of testing, primary cultures were started by scraping off 5-10 colonies from the TSAB plates containing clinical strains or the tetracycline supplemented LB plates containing engineered strains. The clinical strain material was suspended in ˜5 mL of cation adjusted Mueller Hinton Broth (CAMHB) in 14 mL culture tubes. The engineered strain material was suspended in CAMHB (supplemented with 25 μg/mL tetracycline) in 14 mL culture tubes. All strains were incubated at 37° C. with aeration (200 rpm) for ˜2 hrs until the optical density at 600 nm (OD600) was >0.1.
The two compound components of the assay were each diluted in CAMHB and added to the 96-well broth microdilution assay plates. 50 μL of the β-lactam was added to each well of the assay plate in 2-fold dilutions with final concentrations ranging from 128 to 0.13 μg/mL. 25 μL of the BLI compound was added to all wells in the broth microdilution plates at a final concentration of 4 μg/mL. Inoculum cultures were prepared by standardizing the primary cultures to OD600=0.1 and then adding 20 μL of the adjusted primary culture per 1 mL CAMHB for clinical strains or CAMHB (supplemented with tetracycline at 100 μg/mL) for engineered strains, so that the final inoculum density was ˜10^5 colony forming units per milliliter. Diluted inoculum cultures were used to inoculate 25 μl, per well in 96-well broth microdilution assay plates. The final volume of each well was 100 μL and contained a β-lactam at different concentrations, a BLlcompound at 4 μg/mL concentration, the bacterial culture at an OD600 of approximately 0.001 and when necessary tetracycline at 25 μg/mL.
Plates were incubated for 18-20 hours at 37° C. with aeration (200 rpm). Following incubation, growth was confirmed visually placing plates over a viewing apparatus (stand with a mirror underneath) and then OD600 was measured using a SpectraMax 340PC384 plate reader (Molecular Devices, Sunnyvale, Calif.). Growth was defined as turbidity that could be detected with the naked eye or achieving minimum OD600 of 0.1. MIC values were defined as the lowest concentration producing no visible turbidity.
The synergy MIC (sMIC) assay determines the concentration of the BLI required to potentiate the activity of a fixed concentration of a β-lactam antibiotic against β-lactamase producing bacterial strains. The experimental protocol was performed according to Clinical and Laboratory Standards Institute (CLSI) guidelines with modifications as described below (CLSI guidelines can be derived from the CLSI document M07-A9 published in January 2012: “Methods for Dilution Antimicrobial Susceptibility Tests for Bacteria That Grow Aerobically; Approved Standard-Ninth Edition”). […]

Row | SMILES | activity against bacterial strains that express the class D cephalosporinase OXA-15, compared with Avibactam [1] | activity and/or spectrum of activity against bacterial strains that express KPC β-lactamases, compared with Avibactam [2]
1 | N=C(N)NC[C@H](O)c1nnc([C@@H]2CC[C@@H]3CN2C(=O)N3OS(=O)(=O)O)o1 [Compound 732, (2S,5R)-2-(5-((S)-2-guanidino-1-hydroxyethyl)-1,3,4-oxadiazol-2-yl)-7-oxo-1,6-diazabicyclo[3.2.1]octan-6-yl hydrogen sulfate] | more active than Avibactam | more active than Avibactam for at least one, bacterial strain that expresses KPC β-lactamase and/or show a better spectrum of activity
2 | CNCCCc1nnc([C@@H]2CC[C@@H]3CN2C(=O)N3OS(=O)(=O)O)o1 [Compound 734, (2S,5R)-2-(5-β-(methylamino)propyl)-1,3,4-oxadiazol-2-yl)-7-oxo-1,6-diazabicyclo[3.2.1]octan-6-yl hydrogen sulfate] | more active than Avibactam | more active than Avibactam for at least one, bacterial strain that expresses KPC β-lactamase and/or show a better spectrum of activity
3 | NCCCCc1nnc([C@@H]2CC[C@@H]3CN2C(=O)N3OS(=O)(=O)O)o1 [Compound 735, (2S,5R)-2-(5-(4-aminobutyl)-1,3,4-oxadiazol-2-yl)-7-oxo-1,6-diazabicyclo[3.2.1]octan-6-yl hydrogen sulfate] | more active than Avibactam | more active than Avibactam for at least one, bacterial strain that expresses KPC β-lactamase and/or show a better spectrum of activity
4 | O=C1N2C[C@@H](CC[C@H]2c2nnc(CCNCCO)o2)N1OS(=O)(=O)O [Compound 736, (2S,5R)-2-(5-(2-((2-hydroxyethyl)amino)ethyl)-1,3,4-oxadiazol-2-yl)-7-oxo-1,6-diazabicyclo[3.2.1]octan-6-yl hydrogen sulfate] | more active than Avibactam | more active than Avibactam for at least one, bacterial strain that expresses KPC β-lactamase and/or show a better spectrum of activity
5 | CC(C)(N)Cc1nnc([C@@H]2CC[C@@H]3CN2C(=O)N3OS(=O)(=O)O)o1 [Compound 737, (2S,5R)-2-(5-(2-amino-2-methylpropyl)-1,3,4-oxadiazol-2-yl)-7-oxo-1,6-diazabicyclo[3.2.1]octan-6-yl hydrogen sulfate] | more active than Avibactam | more active than Avibactam for at least one, bacterial strain that expresses KPC β-lactamase and/or show a better spectrum of activity
6 | N=C(N)Nc1nnc([C@@H]2CC[C@@H]3CN2C(=O)N3OS(=O)(=O)O)o1 [Compound 738, (2S,5R)-2-(5-guanidino-1,3,4-oxadiazol-2-yl)-7-oxo-1,6-diazabicyclo[3.2.1]octan-6-yl hydrogen sulfate] | more active than Avibactam | more active than Avibactam for at least one, bacterial strain that expresses KPC β-lactamase and/or show a better spectrum of activity
7 | N=C(N)NC1(Cc2nnc([C@@H]3CC[C@@H]4CN3C(=O)N4OS(=O)(=O)O)o2)CC1 [Compound 739, (2S,5R)-2-(5-((1-guanidinocyclopropyl)methyl)-1,3,4-oxadiazol-2-yl)-7-oxo-1,6-diazabicyclo[3.2.1]octan-6-yl hydrogen sulfate] | more active than Avibactam | more active than Avibactam for at least one, bacterial strain that expresses KPC β-lactamase and/or show a better spectrum of activity
8 | O=C1N2C[C@@H](CC[C@H]2c2nnc([C@H]3[C@@H]4CNC[C@@H]43)o2)N1OS(=O)(=O)O [Compound 740, (2S,5R)-2-(5-(3-azabicyclo[3.1.0]hexan-6-yl)-1,3,4-oxadiazol-2-yl)-7-oxo-1,6-diazabicyclo[3.2.1]octan-6-yl hydrogen sulfate] | more active than Avibactam | more active than Avibactam for at least one, bacterial strain that expresses KPC β-lactamase and/or show a better spectrum of activity
9 | N=C(N)N1CC(Cc2nnc([C@@H]3CC[C@@H]4CN3C(=O)N4OS(=O)(=O)O)o2)C1 [Compound 741, (2S,5R)-2-(5-((1-carbamimidoylazetidin-3-yl)methyl)-1,3,4-oxadiazol-2-yl)-7-oxo-1,6-diazabicyclo[3.2.1]octan-6-yl hydrogen sulfate] | more active than Avibactam | more active than Avibactam for at least one, bacterial strain that expresses KPC β-lactamase and/or show a better spectrum of activity
10 | O=C1N2C[C@@H](CC[C@H]2c2nnc(CCC3CNC3)o2)N1OS(=O)(=O)O [Compound 742, (2S,5R)-2-(5-(2-(azetidin-3-ybethyl)-1,3,4-oxadiazol-2-yl)-7-oxo-1,6-diazabicyclo[3.2.1]octan-6-yl hydrogen sulfate] | more active than Avibactam | more active than Avibactam for at least one, bacterial strain that expresses KPC β-lactamase and/or show a better spectrum of activity
11 | O=C1N2C[C@@H](CC[C@H]2c2nnc(CCCC3CNC3)o2)N1OS(=O)(=O)O [Compound 743, (2S,5R)-2-(5-(3-(azetidin-3-yl)propyl)-1,3,4-oxadiazol-2-yl)-7-oxo-1,6-diazabicyclo[3.2.1]octan-6-yl hydrogen sulfate] | more active than Avibactam | more active than Avibactam for at least one, bacterial strain that expresses KPC β-lactamase and/or show a better spectrum of activity
12 | O=C1N2C[C@@H](CC[C@H]2c2nnc(COC3CNC3)o2)N1OS(=O)(=O)O [Compound 744, (2S,5R)-2-(5-((azetidin-3-yloxy)methyl)-1,3,4-oxadiazol-2-yl)-7-oxo-1,6-diazabicyclo[3.2.1]octan-6-yl hydrogen sulfate] | more active than Avibactam | more active than Avibactam for at least one, bacterial strain that expresses KPC β-lactamase and/or show a better spectrum of activity
13 | O=C1N2C[C@@H](CC[C@H]2c2nnc(CCNC3CNC3)o2)N1OS(=O)(=O)O [Compound 745, (2S,5R)-2-(5-(2-(azetidin-3-ylamino)ethyl)-1,3,4-oxadiazol-2-yl)-7-oxo-1,6-diazabicyclo[3.2.1]octan-6-yl hydrogen sulfate] | more active than Avibactam | more active than Avibactam for at least one, bacterial strain that expresses KPC β-lactamase and/or show a better spectrum of activity
